Data reported in patent US10214492B2, “Heterocyclic inhibitors of MCT4” (Vettore, LLC, priority 2016, dated 2019).

Assays:
MCT1 = MCT1 (Homo sapiens (Human), UniProt P53985); experiment: Assay 4: MCT1-mediated lactate transport in BT20 breast cancer cells; format: cell-based; details: Table 27
Method: (§1) 10 μL of a 30 mM DMSO stock of BCECF-AM ester (Life Technologies) is added and the cells are incubated at 37° C. for 5 min. The cells are pelleted (300 g, 5 min), washed once with 1 mL Tyrode's Solution, pH 7.4, re-pelleted (300 g, 5 min), and resuspended in 1 mL Tyrode's Solution, pH 7.4.
Assay 4: MCT1-Mediated Lactate Transport in BT20 Breast Cancer Cells.
Preparation of BCECF loaded cells are as described for Assay 1. Lactate transport assay is as described for Assay 1, except 10 mM L-lactate (rather than 50 mM) is added.

MCT4 = MCT4 (Homo sapiens (Human), UniProt O15427); experiment: Assay 3: MCT4-mediated lactate transport in MDA-MB-231 breast cancer cells; format: cell-based; details: MDA-MB-231 cells; lactate transport
MCT4, sequence (O15427 whole entry, looked up): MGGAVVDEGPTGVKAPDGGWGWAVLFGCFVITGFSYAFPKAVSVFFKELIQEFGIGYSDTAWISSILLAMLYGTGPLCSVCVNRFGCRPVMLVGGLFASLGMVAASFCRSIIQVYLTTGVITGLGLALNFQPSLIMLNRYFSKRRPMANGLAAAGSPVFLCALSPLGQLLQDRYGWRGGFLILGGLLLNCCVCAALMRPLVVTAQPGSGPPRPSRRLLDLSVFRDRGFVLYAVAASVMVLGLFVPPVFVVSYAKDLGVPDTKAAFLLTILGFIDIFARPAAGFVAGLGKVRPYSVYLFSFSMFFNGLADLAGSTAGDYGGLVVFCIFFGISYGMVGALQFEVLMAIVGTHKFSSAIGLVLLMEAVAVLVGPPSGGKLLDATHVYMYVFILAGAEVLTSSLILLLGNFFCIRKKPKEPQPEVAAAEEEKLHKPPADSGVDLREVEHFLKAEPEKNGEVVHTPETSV
MCT4, sequence (P35613 whole entry partner, looked up): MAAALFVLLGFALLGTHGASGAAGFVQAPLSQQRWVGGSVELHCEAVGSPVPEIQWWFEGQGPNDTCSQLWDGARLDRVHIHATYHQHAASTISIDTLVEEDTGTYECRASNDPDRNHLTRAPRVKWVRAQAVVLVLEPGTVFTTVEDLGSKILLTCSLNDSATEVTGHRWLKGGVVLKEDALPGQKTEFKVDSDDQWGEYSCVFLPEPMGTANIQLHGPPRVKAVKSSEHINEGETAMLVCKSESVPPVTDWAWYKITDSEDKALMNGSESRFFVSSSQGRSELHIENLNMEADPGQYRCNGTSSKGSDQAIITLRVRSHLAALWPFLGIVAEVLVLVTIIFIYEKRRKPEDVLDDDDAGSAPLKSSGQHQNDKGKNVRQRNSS
Method: as §1
MCT4 activity may be assessed by monitoring the intracellular pH change that accompanies lactate/proton symport, using the pH-sensitive fluorescent dye 2′,7′-bis-(carboxyethyl)-5(6)-carboxyfluorescein (BCECF), in a manner similar to that previously reported for MCT1 and MCT4. The following is an exemplary procedure for assaying MCT4 activity of the compounds of Formula (I).

MCT1, sequence (P53985 whole entry): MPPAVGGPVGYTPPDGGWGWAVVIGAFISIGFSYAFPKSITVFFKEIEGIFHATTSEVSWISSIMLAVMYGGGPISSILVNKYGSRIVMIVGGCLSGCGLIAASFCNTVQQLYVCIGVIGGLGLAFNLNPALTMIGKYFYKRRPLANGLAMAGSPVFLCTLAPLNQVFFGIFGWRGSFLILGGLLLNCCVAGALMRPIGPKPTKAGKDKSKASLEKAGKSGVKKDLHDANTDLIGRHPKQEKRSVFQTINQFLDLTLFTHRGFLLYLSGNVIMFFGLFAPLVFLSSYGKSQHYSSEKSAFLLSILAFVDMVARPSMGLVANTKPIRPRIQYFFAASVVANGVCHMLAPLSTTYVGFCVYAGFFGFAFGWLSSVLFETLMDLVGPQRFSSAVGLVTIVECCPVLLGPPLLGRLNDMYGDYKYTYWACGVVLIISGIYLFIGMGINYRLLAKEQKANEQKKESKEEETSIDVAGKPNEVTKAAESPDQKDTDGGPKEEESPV
MCT1, sequence (P35613 140-385 partner): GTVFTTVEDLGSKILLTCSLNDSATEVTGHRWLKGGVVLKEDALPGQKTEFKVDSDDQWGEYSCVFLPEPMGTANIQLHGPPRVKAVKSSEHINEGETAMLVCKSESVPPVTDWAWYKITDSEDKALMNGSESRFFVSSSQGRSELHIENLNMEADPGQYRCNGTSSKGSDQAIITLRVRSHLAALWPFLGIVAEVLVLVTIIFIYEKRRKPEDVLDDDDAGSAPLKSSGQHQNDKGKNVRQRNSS

IC50 (MCT1) [nM] | IC50 (MCT4) [nM] | Compound
12000 | 3.4 | CC(C)COc1cccc(-c2cc(COC(C)(C)C(=O)O)nn2-c2ccccc2Cl)c1 [Example 101, 2-([1-(2-Chlorophenyl)-5-[3-(2-methyl-propoxy)phenyl]-1H-pyrazol-3-yl)methoxy)-2-methylpropanoic acid]
42000 | 15 | COc1ccccc1-n1nc(COC(C)(C)C(=O)O)cc1-c1cccc(OCC(C)C)c1 [Example 102, 2-([1-(2-Methoxyphenyl)-5-[3-(2-methylpropoxy)phenyl]-1H-pyrazol-3-yl]methoxy)-2-methylpropanoic acid]
28000 | 2.6 | CC(C)COc1cccc(-c2cc(COC(C)(C)C(=O)O)nn2-c2ccccc2N(C)C)c1 [Example 103, 2-([1-[2-(Dimethylamino)phenyl]-5-[3-(2-methylpropoxy)phenyl]-1H-pyrazol-3-yl]methoxy)-2-methylpropanoic acid]
12000 | 20 | CC(C)COc1cccc(-c2cc(COC(C)(C)C(=O)O)nn2-c2ccccc2)c1 [Example 104, 2-methyl-2-([5-[3-(2-methylpropoxy)phenyl]-1-phenyl-1H-pyrazol-3-yl]methoxy)propanoic acid]
15000 | 7.6 | Cc1ccccc1-n1nc(COC(C)(C)C(=O)O)cc1-c1cccc(OCC(C)C)c1 [Example 105, 2-Methyl-2-([1-(2-methylphenyl)-5-[3-(2-methylpropoxy)phenyl]-1H-pyrazol-3-yl]methoxy]propanoic acid]
21000 | 12 | CC(C)COc1cccc(-c2cc(COC(C)(C)C(=O)O)nn2-c2ccccc2F)c1 [Example 106, 2-([1-(2-fluorophenyl)-5-[3-(2-methyl-propoxy)phenyl]-1H-pyrazol-3-yl)methoxy)-2-methylpropanoic acid]
9900 | 170 | CC(C)COc1cccc(-c2cc(COC(C)(C)C(=O)O)nn2Cc2ccc(N(C)C)cc2)c1 [Example 107, 2-[(1-[[4-(Dimethylamino)phenyl]methyl]-5-[3-(2-methylpropoxy)phenyl]-1H-pyrazol-3-yl)methoxy)-2-methylpropanoic acid]
5200 | 36 | CC(C)COc1cccc(-c2cc(COC(C)(C)C(=O)O)nn2Cc2cccc(N(C)C)c2)c1 [Example 108, 2-[(1-[[3-(Dimethylamino)phenyl]-methyl]-5-[3-(2-methylpropoxy)phenyl]-1H-pyrazol-3-yl)methoxy)-2-methylpropanoic acid]
> 11000 | 2.1 | CC(C)COc1cccc(-c2cc(COC(C)(C)C(=O)O)nn2Cc2ccccc2N(C)C)c1 [Example 109, 2-[(1-[[2-(Dimethylamino)phenyl]-methyl]-5-[3-(2-methylpropoxy)phenyl]-1H-pyrazol-3-yl)methoxy)-2-methylpropanoic acid]
32000 | 7.9 | COc1ccccc1Cn1nc(COC(C)(C)C(=O)O)cc1-c1cccc(OC2CC2)c1 [Example 111, 2-([5-(3-Cyclopropoxyphenyl)-1-[(2-methoxyphenyl)methyl]-1H-pyrazol-3-yl)methoxy)-2-methylpropanoic acid]
94000 | 29 | COc1ccccc1-n1nc(COC(C)(C)C(=O)O)cc1-c1cccc(OC2CC2)c1 [Example 112, 2-([5-(3-cyclopropoxyphenyl)-1-(2-methoxyphenyl)-1H-pyrazol-3-yl]methoxy)-2-methylpropanoic acid]
33000 | 6.7 | COc1ccccc1-n1nc(COC(C)(C)C(=O)O)cc1-c1cccc(OC(C)C)c1 [Example 113, 2-([1-(2-Methoxyphenyl)-5-[3-(propan-2-yloxy)phenyl]-1H-pyrazol-3-yl]methoxy)-2-methylpropanoic acid]
73000 | 4.3 | CN(C)c1ccccc1-n1nc(COC(C)(C)C(=O)O)cc1-c1cccc(OC2CC2)c1 [Example 114, 2-([5-(3-cyclopropoxyphenyl)-1-[2-(dimethylamino)phenyl]-1H-pyrazol-3-yl]methoxy)-2-methylpropanoic acid]
> 100000 |  | COc1cccc(-c2cc(COC(C)(C)C(=O)O)nn2-c2cccnc2)c1 [Example 115, 2-([5-(3-Methoxyphenyl)-1-(pyridin-3-yl)-1H-pyrazol-3-yl]methoxy)-2-methylpropanoic acid]
> 100000 |  | COc1cccc(-c2cc(COC(C)(C)C(=O)O)nn2-c2ccccc2F)c1 [Example 117, 2-([1-(2-Fluorophenyl)-5-(3-methoxyphenyl)-1H-pyrazol-3-yl]methoxy)-2-methylpropanoic acid]
50000 |  | COc1cccc(-c2cc(COC(C)(C)C(=O)O)nn2-c2ccccc2C)c1 [Example 118, 2-([5-(3-methoxyphenyl)-1-(2-methylphenyl)-1H-pyrazol-3-yl]methoxy)-2-methylpropanoic acid]

IC50 (MCT1) [nM] | IC50 (MCT4) [nM] | Compound
65000 |  | COc1cccc(-c2cc(COC(C)(C)C(=O)O)nn2-c2ccccc2OC)c1 [Example 119, 22-([1-(2-Methoxyphenyl)-5-(3-methoxyphenyl)-1H-pyrazol-3-yl]methoxy)-2-methylpropanoic acid]
2500 | 50 | CC[C@H](OCc1cc(-c2cccc(OC)c2)n(Cc2ccccc2Cl)n1)C(=O)O [Example 122, (2S)-2-([1-[(2-Chlorophenyl)methyl]-5-(3-methoxyphenyl)-1H-pyrazol-3-yl]methoxy)-butanoic acid]
11000 | 1500 | CC[C@@H](OCc1cc(-c2cccc(OC)c2)n(Cc2ccccc2Cl)n1)C(=O)O [Example 123]
31000 | 420 | COc1cccc(-c2cc(CO[C@@H](C)C(=O)O)nn2Cc2ccccc2Cl)c1 [Example 124, (2S)-2-([1-[(2-Chlorophenyl)methyl]-5-(3-methoxyphenyl)-1H-pyrazol-3-yl]methoxy)-propanoic acid]
 | 5900 | COc1cccc(-c2cc(CO[C@H](C)C(=O)O)nn2Cc2ccccc2Cl)c1 [Example 125, (2R)-2-([1-[(2-Chlorophenyl)methyl]-5-(3-methoxyphenyl)-1H-pyrazol-3-yl]methoxy)-propanoic acid]
35000 | 130 | COc1ccccc1-c1cc(COC(C)(C)C(=O)O)nn1Cc1ccccc1Cl [Example 126]
15000 | 41 | COc1ccc(-c2cc(COC(C)(C)C(=O)O)nn2Cc2ccccc2Cl)cc1 [Example 127, 2-([1-[(2-Chlorophenyl)methyl]-5-(4-methoxyphenyl)-1H-pyrazol-3-yl]methoxy)-2-methylpropanoic acid]
> 11000 | 1.2 | CC(C)COc1ccc(-c2cc(COC(C)(C)C(=O)O)nn2Cc2ccccc2Cl)s1 [Example 128, 2-([1-[(2-Chlorophenyl)methyl]-5-[5-(2-methylpropoxy)thien-2-yl]-1H-pyrazol-3-yl]methoxy)-2-methylpropanoic acid]
16000 | 2.8 | CC(C)Oc1ccc(-c2cc(COC(C)(C)C(=O)O)nn2Cc2ccccc2Cl)s1 [Example 129, 2-([1-[(2-Chlorophenyl)methyl]-5-[5-(propan-2-yloxy)thien-2-yl]-1H-pyrazol-3-yl]methoxy)-2-methylpropanoic acid]
650 | 225 | CC(C)(OCc1cc(-c2ccc(OC3CC3)s2)n(Cc2ccccc2Cl)n1)C(=O)O [Example 131, 2-([1-[(2-Chlorophenyl)methyl]-5-(5-cyclopropoxythien-2-yl)-1H-pyrazol-3-yl]methoxy)-2-methylpropanoic acid]
220 | 53 | COc1cccc(OC)c1Cn1nc(COC(C)(C)C(=O)O)cc1-c1cccc(OCC(C)C)c1 [Example 135, 2-([1-[(2,6-Dimethoxyphenyl)methyl]-5-[3-(2-methylpropoxy)phenyl] 1H-pyrazol-3-yl]methoxy)-2-methylpropanoic acid]
> 33000 |  | COc1cccc(-c2cc(COC(C)(C)C(=O)O)nn2Cc2c(F)cccc2N(C)C)c1 [Example 136, 2-[(1-[(2-(Dimethylamino)-6-fluoro-phenyl]methyl]-5-(3-methoxyphenyl)-1H-pyrazol-3-yl)methoxy)-2-methylpropanoic acid]
8500 |  | COc1cc(OC)cc(-c2cc(COC(C)(C)C(=O)O)nn2-c2cccc(Cl)c2)c1 [Example 241, 2-([5-(3,5-Dimethoxyphenyl)-1-(3-chlorophenyl)-1H-pyrazol-3-yl]methoxy)-2-methylpropanoic acid]
57000 |  | COc1cc(OC)cc(-c2cc(COC(C)(C)C(=O)O)nn2-c2cccc(OC)c2)c1 [Example 242, 2-([5-(3,5-Dimethoxyphenyl)-1-(3-methoxyphenyl)-1H-pyrazol-3-yl]methoxy)-2-methylpropanoic acid]
> 100000 |  | Cn1cnc2ccc(-c3cc(COC(C)(C)C(=O)O)nn3Cc3ccccc3Cl)cc21 [Example 248, 2-([1-[(2-Chlorophenyl)methyl]-5-(1-methyl-1H-1,3-benzodiazol-6-yl)-1H-pyrazol-3-yl]methoxy)-2-methylpropanoic acid]
7300 |  | Cc1nn(C)c2c(-n3nc(COC(C)(C)C(=O)O)cc3-c3cccc(OCC(C)(C)C)c3)cccc12 [Example 255]

Compound | IC50 (MCT1) [nM] | IC50 (MCT4) [nM]
2-((1-[(2-Chlorophenyl)methyl]-5-(4-cyclopropoxythien-2-yl)-1H-pyrazol-3-yl(methoxy)-2-methylpropanoic acid [Example 130] | 55 | 98
